Source: publication PMC7930286 (Heliyon, 2021)

Columns and labels:
[1] = DPPH free radical scavenging assay; conditions: for DPPH Percent inhibition (mean ± S.E.M): n = 3
[2] = ABTS free radical scavenging assay; conditions: for ABTS percent inhibition (mean ± S.E.M): n = 3
[3] = biological target: butyrylcholinesterase (BChE) (Homo sapiens, UniProt P06276); assay: Anticholinesterase; type: biochemical; conditions: for inhibition at 62.5 µg/mL: read-out: Percent BChE inhibition (mean ± SEM), 62.5 μg/mL; for inhibition at 125 µg/mL: read-out: Percent BChE inhibition (mean ± SEM), 125 μg/mL; for inhibition at 250 µg/mL: read-out: Percent BChE inhibition (mean ± SEM), 250 μg/mL; for inhibition at 500 µg/mL: read-out: Percent BChE inhibition (mean ± SEM), 500 μg/mL; for inhibition at 1000 µg/mL: read-out: Percent BChE inhibition (mean ± SEM), 1000 μg/mL
butyrylcholinesterase (BChE), sequence (P06276 29-602, species assumed): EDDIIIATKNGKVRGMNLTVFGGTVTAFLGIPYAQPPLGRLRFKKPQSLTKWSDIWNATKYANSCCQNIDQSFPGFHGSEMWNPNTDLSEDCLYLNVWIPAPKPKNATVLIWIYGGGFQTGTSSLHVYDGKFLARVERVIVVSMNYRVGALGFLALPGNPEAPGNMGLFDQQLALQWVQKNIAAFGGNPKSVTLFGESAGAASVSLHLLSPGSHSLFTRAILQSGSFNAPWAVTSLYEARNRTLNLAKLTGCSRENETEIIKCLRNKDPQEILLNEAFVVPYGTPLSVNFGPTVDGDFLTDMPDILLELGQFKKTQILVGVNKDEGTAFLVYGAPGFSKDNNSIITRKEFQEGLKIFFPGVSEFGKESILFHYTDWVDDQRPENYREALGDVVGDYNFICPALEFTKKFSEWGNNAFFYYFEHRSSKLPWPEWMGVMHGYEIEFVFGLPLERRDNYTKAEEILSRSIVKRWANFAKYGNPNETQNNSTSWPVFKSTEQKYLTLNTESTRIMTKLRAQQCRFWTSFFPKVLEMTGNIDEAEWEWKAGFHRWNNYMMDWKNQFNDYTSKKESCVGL

α-glucosidase = assay: Inhibitory assay of α-glucosidase; type: biochemical; conditions: for Alpha-glucosidase %inhibition (mean ± SEM): n = 3
α-amylase = assay: Inhibitory assay of α-amylase; type: biochemical; conditions: for Alpha-amylase % inhibition (mean ± SEM): n = 3
[4] = Solubility description of isolated compounds; type: physicochemical
[5] = biological target: acetylcholinesterase (AChE) (Homo sapiens, UniProt P22303); assay: biochemical; conditions: for inhibition at 62.5 µg/mL / inhibition at 250 µg/mL / inhibition at 500 µg/mL / inhibition at 1000 µg/mL: read-out: Percent AChE inhibition (mean ± SEM)
acetylcholinesterase (AChE), sequence (P22303 32-614, species assumed): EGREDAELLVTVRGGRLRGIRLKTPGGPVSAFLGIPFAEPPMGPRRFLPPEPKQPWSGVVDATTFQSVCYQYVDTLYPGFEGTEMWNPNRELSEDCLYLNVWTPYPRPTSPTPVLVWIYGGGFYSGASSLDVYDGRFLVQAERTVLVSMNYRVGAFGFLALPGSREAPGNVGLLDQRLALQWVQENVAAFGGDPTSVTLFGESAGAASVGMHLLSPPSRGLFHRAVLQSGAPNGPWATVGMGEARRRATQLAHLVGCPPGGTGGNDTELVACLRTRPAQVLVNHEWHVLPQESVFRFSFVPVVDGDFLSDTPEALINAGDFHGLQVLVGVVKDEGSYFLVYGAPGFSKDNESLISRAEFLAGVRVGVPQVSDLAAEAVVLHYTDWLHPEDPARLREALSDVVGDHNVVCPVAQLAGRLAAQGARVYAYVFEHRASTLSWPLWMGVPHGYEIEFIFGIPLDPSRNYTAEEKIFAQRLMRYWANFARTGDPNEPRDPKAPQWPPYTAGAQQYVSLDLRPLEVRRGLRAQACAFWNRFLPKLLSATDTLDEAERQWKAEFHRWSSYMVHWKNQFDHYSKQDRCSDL

Row | SMILES | DPPH IC50 [1] | DPPH Percent inhibition (mean ± S.E.M) ([1]; 62.5 μg/mL) | DPPH Percent inhibition (mean ± S.E.M) ([1]; 125 μg/mL) | DPPH Percent inhibition (mean ± S.E.M) ([1]; 250 μg/mL) | DPPH Percent inhibition (mean ± S.E.M) ([1]; 500 μg/mL) | DPPH Percent inhibition (mean ± S.E.M) ([1]; 1000 μg/mL) | ABTS IC50 [2] | ABTS percent inhibition (mean ± S.E.M) ([2]; 62.5 μg/mL) | ABTS percent inhibition (mean ± S.E.M) ([2]; 250 μg/mL) | ABTS percent inhibition (mean ± S.E.M) ([2]; 500 μg/mL) | ABTS percent inhibition (mean ± S.E.M) ([2]; 1000 μg/mL) | inhibition at 62.5 µg/mL ([3]; n = 3) | inhibition at 125 µg/mL ([3]; n = 3) | inhibition at 250 µg/mL ([3]; n = 3) | inhibition at 500 µg/mL ([3]; n = 3) | Alpha-glucosidase IC50 (α-glucosidase) | Alpha-amylase % inhibition (mean ± SEM) (α-amylase; 125 μg/mL) | Alpha-amylase % inhibition (mean ± SEM) (α-amylase; 250 μg/mL) | Alpha-amylase % inhibition (mean ± SEM) (α-amylase; 500 μg/mL) | Alpha-amylase % inhibition (mean ± SEM) (α-amylase; 1000 μg/mL) | further results
1 | COc1ccc(C(=O)O)cc1OC [Compound VI, 3,4-dimethoxy benzoic acid] | 67 µg/mL | 48.2 ± 2.3 ^ns % | 54.7 ± 2.1∗∗ % | 63.7 ± 0.8∗∗∗∗ % | 72.3 ± 0.3∗∗∗∗ % | 82.1 ± 1.2∗∗∗∗ % | 67 µg/mL | 48.2 ± 1.3∗∗ % | 61.1 ± 1.4∗∗∗ % | 71.0 ± 1.6∗∗∗∗ % | 81.2 ± 1.0∗∗∗∗ % | 47 ± 1.1% | 53.5 ± 1.6% | 61.4 ± 0.3% | 71.1 ± 1.6% | 84 µg/mL | 50.3 ± 2.4∗∗ % | 59.1 ± 1.9∗∗∗∗ % | 71.3 ± 1.7∗∗∗∗ % | 79.0 ± 3.2∗∗∗∗ % | Percent BChE inhibition (mean ± SEM) ([3]; 1000 μg/mL, n = 3): 79.8 ± 1.4∗∗ %; Alpha-glucosidase %inhibition (mean ± SEM) (α-glucosidase; 125 μg/mL): 54.3 ± 1.5∗∗∗ %; Alpha-glucosidase %inhibition (mean ± SEM) (α-glucosidase; 250 μg/mL): 62.5 ± 2.4∗∗∗ %; Alpha-glucosidase %inhibition (mean ± SEM) (α-glucosidase; 500 μg/mL): 68.2 ± 1.7∗∗ %; Alpha-glucosidase %inhibition (mean ± SEM) (α-glucosidase; 1000 μg/mL): 84.6 ± 1.5∗∗∗∗ %; Alpha-amylase IC50 (α-amylase): 112 µg/mL; solubility (description) [4]: soluble in organic solvents; IC50 [5]: 494 µM; inhibition at 62.5 µg/mL [5]: 47.2 ± 1.5%; inhibition at 250 µg/mL [5]: 62.1 ± 2%; inhibition at 500 µg/mL [5]: 71.2 ± 1.8%; inhibition at 1000 µg/mL [5]: 80.7 ± 1.1%
2 | COc1ccc2c3c1O[C@H]1C[C@@H](O)C=C[C@@]31CCN(C)C2 [Galantamine, reference compound] |  |  |  |  |  |  |  |  |  |  |  | 54.1 ± 1% |  | 71.8 ± 1.5% | 81.8 ± 1.4% |  |  |  |  |  | inhibition at 1000 µg/mL ([3]; n = 3): 92 ± 0.8%
3 | C[C@H]1O[C@H](O[C@H]2[C@H](O)[C@@H](O)[C@@H](O[C@H]3[C@H](O)[C@@H](O)C(O)O[C@@H]3CO)O[C@@H]2CO)[C@H](O)[C@@H](O)[C@@H]1N[C@H]1C=C(CO)[C@@H](O)[C@H](O)[C@H]1O (some centres unmarked) [Acarbose, reference compound] |  |  |  |  |  |  |  |  |  |  |  |  |  |  |  |  | 57.0 ± 1.2% | 66.4 ± 1.2% | 77.1 ± 1.4% | 92.1 ± 0.8% | 
4 | O=C1O[C@H]([C@@H](O)CO)C(O)=C1O [Ascorbic acid, reference compound] | 38 µg/mL | 52.2 ± 2.3% | 63.2 ± 1.1% | 73.8 ± 2.2% | 84.1 ± 0.4% | 93.2 ± 0.1% | 39 µg/mL | 52.1 ± 1.1% | 72.1 ± 0.4% | 83.1 ± 1.1% | 93.0 ± 0.7% |  |  |  |  |  |  |  |  |  | 
5 | CCCCCCCOc1ccc(C(=O)O)cc1 [Compound VII, 4-heptyloxy benzoic acid] | 118 µg/mL | 46.7 ± 2.1∗∗ % | 51.9 ± 1.3∗∗ % | 62.5 ± 1.1∗∗∗∗ % | 71.2 ± 1.3∗∗∗∗ % | 80.4 ± 1.1∗∗∗∗ % | 115 µg/mL | 46.1 ± 1.9∗∗ % | 62.1 ± 1.3∗∗∗ % | 71.2 ± 2.1∗∗∗∗ % | 80.1 ± 1.0∗∗∗∗ % | 47.2 ± 1.2% | 53.4 ± 1.1% | 62.1% | 71.1 ± 0.8% | 108 µg/mL | 51.4 ± 1.5∗∗∗ % | 61.2 ± 2.2∗ % | 64.5 ± 2.8∗∗ % | 73.3 ± 1.1∗∗∗∗ % | IC50 ([3]; BChE IC50): 381 µM; inhibition at 1000 µg/mL ([3]; n = 3): 80 ± 1.1%; Alpha-amylase IC50 (α-amylase): 110 µg/mL; solubility (description) [4]: soluble in organic solvents; IC50 [5]: 377 µM; inhibition at 62.5 µg/mL [5]: 47.8 ± 1.3%; inhibition at 250 µg/mL [5]: 62.3 ± 1.1%; inhibition at 500 µg/mL [5]: 71.5 ± 1.6%; inhibition at 1000 µg/mL [5]: 80.1 ± 1.2%
